# Experimental data from EP1506285B1, “COMBINATIONS OF ANTI-DR5 ANTIBODIES AND ANTI-DR4 ANTIBODIES AND OTHER THERAPEUTIC AGENTS” (UAB RESEARCH FOUNDATION, priority 2001, dated 2003).
# Residues, ends and D or L forms follow the SMILES beside them. *: point of attachment. Cbz = O=C(OCc1ccccc1)*; CH2F = FC*
# How the values were obtained:
# Jurkat cells = assay: Cell viability / apoptosis induction in Jurkat cells; format: cell-based, human; details: 50 ng/ml TRA-8 overnight
# Procedure: Cell viability is determined using (1) the ATPLite kit according to the manufacturer's instructions (Packard Instruments, Meriden, CT); (2) the MTT Cell proliferation/viability kit (Sigma); or (3) PI staining of dead cells and analyzed by flow cytometry. At end of culture, cells are stained with 10 µg/ml PI and PI negative cells are gated as viable cells. For analysis of condensed nuclei of hepatocytes, cells are stained with 10 ng/ml […] (Molecular Probes) and analyzed by flow cytometry.
# [1] = biological target: human DR5/hIgG1 fusion protein (residues 1-180 of the extracellular portion of DR5 fused to the constant region of human IgG1; immunogen, ~50 kDa) (human) (UniProt O14763); assay: ELISA on DR5-Ig, one-site binding model of non-linear regression
# 2LMP s.c. tumors = assay: TRA-8 therapy alone or with chemotherapy or radiation, breast cancer xenografts; format: in vivo, Athymic nude mice
# Procedure: Athymic nude mice were injected s.c. with 3 x 10^7 2LMP cells. […] The growth of tumors was monitored over time. […] Tumor size and regression rates were determined.
# Data from 6 independent experiments were analyzed by individual experiment. Treatment combinations were compared with respect to in vivo anti-tumor efficacy, i.e., inhibition of tumor growth, which was measured as three endpoints; extension of tumor doubling times, percentage of tumor regressions, and growth rates over time. The actual number of days at which the tumor doubled in surface area (product of two diameters) relative to baseline on day 7 after tumor cell injection was used in the doubling time analysis. The nonparametric Kruskal-Wallis test was used for median tumor doubling time comparisons between treatments. Fisher's exact test was used to compare the proportions of tumor regressions and relapse-free regressions across treatment groups. To determine if any combination therapy produced significant synergistic inhibition of tumor growth, i.e., more than additive, the growth curves from the serial area measurements were compared using a linear mixed model approach over the first 3 weeks after start of therapy (Lindsey, J.K. Models for Repeated Measurements, pp. 100-142, Oxford, 1993). To test for synergistic effects of the combination therapies, an interaction term was included in the model. If the interaction term was significant and the effect was inhibition of growth at a rate greater than additive then the interaction was considered synergistic.
# A total of 166 animals, 10 treatment groups, and 6 independent experiments were included in the aggregate analysis. Treatment combinations were compared with respect to in vivo anti-tumor efficacy. The median tumor doubling times were analyzed using the Kruskal-Wallis test and Fisher's exact test was used to compare the proportions of tumor regressions and relapse-free regressions across treatment groups.
# 2LMP xenografts = assay: Analysis of apoptosis in xenografts, TUNEL; format: in vivo, Athymic nude mice; details: day 14; TRA-8 100 µg i.p. days 7, 10; adriamycin 3 mg/kg or paclitaxel 10 mg/kg days 8, 11
# Procedure: One group of mice was untreated. The xenografts were dissected for the study of apoptosis on day 14 after tumor cell injection. The reason for the substantial reduction in treatment intensity compared to our standard treatment protocol was to allow adequate tumor tissue for analysis on day 14. Tunel assay for apoptosis in tumor xenografts was performed as follows. Five-micron paraffin sections of tissue were mounted on Superfrost/Plus slides and heated at 58°C for 1 h. Tissue sections were deparaffinized in three changes of xylene and rehydrated with one change of absolute ethanol, 95% ethanol, and 70% ethanol, each in 5-min increments. Then, the sections were placed in Tris-buffered saline (0.5M Tris base, 0.15 M NaCl, 0.0002% Triton X-100, pH 7.6). Apoptotic nuclei were detected using an Apop Tag Peroxidase kit (Intergen, Purchase, NY). Proteinase K (20 µg/ml in distilled deionized H2O) was added to the tissue specimens and incubated at room temperature for 15 min. Endogenous peroxidases were quenched with an aqueous solution of 3% hydrogen peroxide for 5 min. Sections were treated with an equilibration buffer for 3 0 min and then incubated with the TdT/enzyme (diluted in labeling reaction mix) for 1 h at 37°C using parafilm covers. During this incubation, the TdT enzyme binds the 3'-OH ends of DNA fragments and catalyzes the addition of digoxigenin-labeled and unlabeled deoxynucleotides. Negative controls were incubated with distilled H2O (diluted in labeling reaction mix) instead of the TdT enzyme. A stop buffer was added for 10 min at room temperature to terminate the labeling reaction. An anti-digoxigenin conjugate was added to each slide for 30 min. The chromagen 3,3' DAB was used to visualize the labeled 3' OH end of DNA fragments. The slides were then rinsed in deionized water and lightly counterstained with hematoxylin, dehydrated using graded alcohols and xylene and coverlsipped using Permount. Approximately 10 random fields were evaluated for percentage of Tunel stained and percentage of intensely stained apoptotic bodies throughout the tissue.
# CLL B cells = assay: Cytotoxicity to chronic lympholytic leukemia B cells in vitro; format: cell-based, human; details: five patients; compared to normal primary B cells
# [2] = biological target: T1, human DR5, full length, on cells (human, UniProt O14763 56-440); assay: radioisotope-labelled TRA-8 on a breast cancer cell line, compared with soluble TRAIL
# T1 construct: whole, on cells; Used for Cos-7 cells transfected with full-length human DR5 cDNA and for human cells, cell lines and tissues that carry DR5 of their own; also called cell surface DR5; TRAIL-R2
molecule,measurement,setting,value
CC(NC(=O)C(NC(=O)OCc1ccccc1)C(C)C)C(=O)NC(CC(=O)O)C(=O)CF (stereo not drawn) [Z-VAD] (Cbz-Val-Ala-Asp-CH2F; configuration not given here),inhibition of TRA-8-mediated cell death by caspase inhibitor,Jurkat cells,completely inhibited
TRA-8 anti-human DR5 monoclonal antibody,Kd,[1],3 nM
"COc1cccc2c1C(=O)c1c(O)c3c(c(O)c1C2=O)C[C@@](O)(C(=O)CO)C[C@@H]3O[C@H]1C[C@H](N)[C@H](O)[C@H](C)O1 [Adriamycin, doxorubicin]",complete regressions of tumor,2LMP s.c. tumors; TRA-8/adriamycin experiment (Figure 25),no complete regressions
same,tumor growth compared to untreated controls,"2LMP s.c. tumors; TRA-8/adriamycin experiment (Figure 25), 200 µg TRA-8, adriamycin 6 mg/kg i.v.",did not differ from controls
same,intense stained cells (TUNEL),2LMP xenografts,6%
same,stained cells (TUNEL),2LMP xenografts,8%
"soluble recombinant human TRAIL (FLAG-tagged, Alexis) (from UniProt P50591 95-281) (ligand)",Kd,[1],59 nM
"Cn1cc(C2=C(c3cn(CCCN)c4ccccc34)C(=O)NC2=O)c2ccccc21 [BisVIII, Bisindolylmaleimide VIII]",susceptibility of CLL B cells,CLL B cells,sensitive
CC(=O)O[C@H]1C(=O)[C@@]2(C)[C@H]([C@H](OC(=O)c3ccccc3)[C@]3(O)C[C@H](OC(=O)[C@H](O)[C@@H](NC(=O)c4ccccc4)c4ccccc4)C(C)=C1C3(C)C)[C@]1(OC(C)=O)CO[C@@H]1C[C@@H]2O [Paclitaxel],complete regressions,2LMP s.c. tumors; TRA-8/paclitaxel experiment (Figure 26),none
same,intense stained cells (TUNEL),2LMP xenografts,2%
same,stained cells (TUNEL),2LMP xenografts,7%
"TRA-8 anti-human DR5 monoclonal antibody (antibody, mouse IgG1, kappa, V domains shown, Mouse IgG1, kappa; also called monoclonal anti-DR5 antibody (clone: TRA-8); mouse-mouse hybridoma TRA-8, ATCC PTA-1428) VH: EVMLVESGGGLVKPGGSLKLSCAASGFTFSSYVMSWVRQTPEKRLEWVATISSGGSYTYYPDSVKGRFTISRDNAKNTLYLQMSSLRSEDTAMYYCARRGDSMITTDYWGQGTTLTVSS VL: DIVMTQSHKFMSTSVGDRVSITCKASQDVGTAVAWYQQKPGQSPKLLIYWASTRHTGVPDRFTGSGSGTDFTLTISNVQSEDLADYFCQQYSSYRTFGGGTKLEIKR",fold higher binding activity than soluble TRAIL,[2],≥ 50 fold
